Each molecule was assayed against Aurora-B (Homo sapiens, UniProt Q96GD4) (assay: Aurora B (Aurora-1) Inhibition Assay, 33P incorporation). Conditions: enzyme inhibition data (Ki), Table 11; read-out: AurB Ki.
Assay type: biochemical
Experimental: An assay buffer solution is prepared which consists of 25 mM HEPES (pH 7.5), 10 mM MgCl2, 0.1% BSA and 10% glycerol. A 22 nM Aurora-B solution, also containing 1.7 mM DTT and 1.5 mM Kemptide (LRRASLG), is prepared in assay buffer. To 22 μL of the Aurora-B solution, in a 96-well plate, is added 2 μl of a compound stock solution in DMSO and the mixture is allowed to equilibrate for 10 minutes at 25° C. The enzyme reaction is initiated by the addition of 16 μl stock [γ-^33P]-ATP solution (˜20 nCi/μL) prepared in assay buffer, to a final assay concentration of 800 μM. The reaction is stopped after 3 hours by the addition of 16 μL 500 mM phosphoric acid and the levels of ^33P incorporation into the peptide substrate is determined by the following method.
A phosphocellulose 96-well plate (Millipore, Cat no. MAPHNOB50) is pre-treated with 100 μL of a 100 mM phosphoric acid prior to the addition of the enzyme reaction mixture (40 μL). The solution is left to soak on to the phosphocellulose membrane for 30 minutes and the plate subsequently is washed four times with 200 μL of a 100 mM phosphoric acid. To each well of the dry plate is added 30 μL of Optiphase ‘SuperMix’ liquid scintillation cocktail (Perkin Elmer) prior to scintillation counting (1450 Microbeta Liquid Scintillation Counter, Wallac). Levels of non-enzyme catalysed background radioactivity are determined by adding 16 μL of the 500 mM phosphoric acid to control wells, containing all assay components (which acts to denature the enzyme), prior to the addition of the [γ-^33P]-ATP solution. Levels of enzyme catalysed ^33P incorporation are calculated by subtracting mean background counts from those measured at each inhibitor concentration. For each Ki determination 8 data points, typically covering the concentration range 0-10 μM compound, are obtained in duplicate (DMSO stocks are prepared from an initial compound stock of 10 mM with subsequent 1:2.5 serial dilutions). Ki values are calculated from initial rate data by non-linear regression using the Prism software package (Prism 3.0, Graphpad Software, San Diego, Calif.).

Chain of Aurora-B (Q96GD4 whole entry): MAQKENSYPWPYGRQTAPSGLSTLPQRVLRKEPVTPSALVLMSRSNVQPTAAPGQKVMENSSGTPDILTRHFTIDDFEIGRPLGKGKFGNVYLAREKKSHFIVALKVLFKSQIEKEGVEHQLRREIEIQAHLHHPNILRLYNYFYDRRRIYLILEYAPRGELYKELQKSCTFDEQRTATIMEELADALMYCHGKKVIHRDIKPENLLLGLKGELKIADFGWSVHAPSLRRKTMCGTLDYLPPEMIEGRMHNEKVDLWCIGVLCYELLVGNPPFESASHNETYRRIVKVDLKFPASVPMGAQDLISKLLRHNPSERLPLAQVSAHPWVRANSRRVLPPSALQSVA

Ki | Compound
500 to 5000 nM | Cc1ccnc(-c2c(N)nn3cc(-c4ccncc4)cnc23)c1 [Compound V-133]
500 to 5000 nM | Cc1cccnc1-c1c(N)nn2cc(-c3ccncc3)cnc12 [Compound V-135]
500 to 5000 nM | Cc1cccc(-c2c(N)nn3cc(-c4ccncc4)cnc23)n1 [Compound V-178]

Further lines, the molecule ahead of its results:

Compound | Ki
Cc1ccc(-c2c(N)nn3cc(-c4ccncc4)cnc23)nc1 [Compound V-132] | 500 to 5000 nM
Nc1nn2cc(-c3ccncc3)cnc2c1-c1ncccc1OCc1ccccc1 [Compound V-134] | 500 to 5000 nM
Nc1nn2cc(-c3ccncc3)cnc2c1-c1cc(N2CCCCC2)ncn1 [Compound V-179] | < 500 nM

Source: patent US7528138B2, “Pyrazolo[1,5-a]pyrimidines useful as inhibitors of protein kinases” (Vertex Pharmaceuticals Incorporated, priority 2004, dated 2009)
